# Patent US5114972A, “Synthesis and uses of new ascorbic acid derivatives which have anti-oxidant and anti-cancer activities” (priority 1990, dated 1992)
# Legend:
# [1] = test system: Ehrlich's ascites tumor (EAT); experiment: Anti-cancer activity, Ehrlich's ascites tumor (EAT) model; format: in vivo, mice; settings: 5-FU 20 mg/kg/day
# Procedure: (§1) We used two mice models (Tomomatsu, Morita, Nagai, Shiwaku, Ichiki and Yonoki: Acta Med. Univ. Kagoshima. 17:99, 1975), i.e., (a) Ehrlich's ascites tumor (EAT) model and (b) a solid tumor model in which EAT cells were innoculated subcutaneously. In (a), 10^7 tumor cells were injected I.P. in a mouse with the body weight of 20 g. In (b), the same amount of tumor cells were injected subcutaneously in a mouse of similar weight. After 21 days, we measured several parameters: (i) the change of body weight; (ii) average time to their death, from which we measure extension of life span, and (iii) survival rate.
# In the ascites tumor model, an increase of body weight is related to the increase in ascites. When the animal dies, we collect the ascites fluid and measure the number of tumor cells found in the ascites.
# (§2) In the solid tumor model, we measured the extension of the life span and the survival rate. […] In the Experiment 1, from day 4 until day 13 (for ten days), anti-cancer drugs were administered. […] In the combination therapy, both drugs were administered simultaneously at their respective doses. […] With the 5-FU, they died in an average of 20.3 days. […] In the tumor model, similar tendency was observed.
# (§3) In the Experiment 2, the amount of the oligomer was cut down to 1 mg/kg/day to see whether we could still observe anti-cancer activity.
# solid tumor (EAT cells) = experiment: Anti-cancer activity, solid tumor model (EAT cells inoculated subcutaneously); format: in vivo, mice; settings: 5-FU 20 mg/kg/day
# Procedure: as §1, §2, §3
# mice = experiment: Reduction of toxic side-effect of 5-FU by OC-5186 (Experiment 2); format: in vivo
# Procedure: as §3
# brain ischemia = experiment: Survival rate after global brain ischemia; format: in vivo, Sprague-Dawley rats; settings: 9 mg/kg; OC-5186 injected I.P. thirty minutes prior to ischemia; control 8 out of 8 died within 2 days
# Procedure: Adult, male Sprague-Dawley rats, weighing 300 to 350 grams, were used to prepare global ischemia. Anesthesia was induced and maintained with forane in 70% nitrous oxide-30% oxygen. After trachea was intubated, anesthesia was maintained using a ventilator. Both common carotid arteries were exposed and occluded by microaneurysmal clips. Then 12 to 14 ml of blood was withdrawn from the tail vein to bring the blood pressure to 30 mm Hg, which caused global ischemia. After twenty minutes of ischemia, blood was reinfused, clips were removed to induce recirculation. After twenty minutes of recirculation, the rat was decapitated, the brain was removed in ice-cold saline and then homogenized for TBAR measurement and spin trap measurement. For the measurement of survival rate, the wound was sutured and the animal recovered. The animal was returned to its cage. They were then observed for the survival rate. […] In this experiment, the brain was homogenized in the presence of 50 mM tert-butyl-(alpha)-phenylnitrone and the homogenate was introduced to electron spin resonance spectrophotometer.
# In control experiment, where no drug was introduced, 8 out of 8 animals died within 2 days. […] Ascorbic acid (9 mg/kg) had no effect.
# sickle red blood cells = experiment: Formation of irreversibly sickled cells upon sickling-unsickling cycling in vitro; format: cell-based; settings: 10 ug/ml
# Source text: The inventor previously developed the method to produce irreversibly sickled cells (ISC, which are irreversibly denatured sickle cells) by exposing sickle red blood cells to a repeated sickling-unsickling cycling in vitro. He used this system to determine the efficacy of drugs in protecting cell membranes (Ohnishi, Br. J. Haematol. 55:665-671, 1983; Ohnishi et al. Biochim. Biophys. Acta 886:119-129, 1986). […] These heavy cells were collected, the amount measured, and the percentage of production calculated.
# [2] = test system: FCR-3 strain P. falciparum; experiment: Growth inhibition of P. falciparum in in vitro culture; format: cell-based; settings: 50 ug/ml, forty-eight hours
# Procedure: The FCR-3 strain P. falciparum was used. Blood-stage parasites were cultured in RPMI-1640 (GIBCO Laboratories, Chagrin Falls, Ohio) in 96 well flat bottomed plates (Costar; Cambridge, Mass.) using the candle jar method described by Jensen and Trager (J. Parasitology 63:883,1977) and modified by Grun and Weidanz (J. Parasitology 73:384, 1987). Parasitemia was estimated on GIEMSA stained films of cultures. For drug administration, desired amounts of chemicals were added to an individual wells of 96 well plates. Forty-eight hours later, parasitemia was estimated and the degree of growth inhibition was determined.
# [3] = Superoxide scavenging activity, adenochrome method; format: biochemical; settings: 50 ug/ml each; absorbance at 480 nm (FIG. 1)
# Source text: From the change of the slope, we can estimate the activity of scavenging action.
# [4] = test system: lipid peroxidation (TBAR) in rat head/brain homogenate; experiment: Inhibition of TBAR production (lipid peroxidation) in ischemic rat brain homogenate, drug added in vitro; format: biochemical; settings: added in vitro before exposure to air (FIG. 3, FIG. 4)
# Source text: (A) When cell membranes are exposed to ischemic or hypoxic insult, lipid peroxidation takes place. The degree of peroxidation can be measured by the production of thiobarbiturate reactive substances (TBAR). We have developed a simple assay method; we decapitate the rat and keep the head under a hypoxic condition for thirty minutes at 37 degrees and then homogenize it, then expose the homogenate to air for sixty minutes and measure the production of TBAR.
# [5] = Anti-oxidant activity and protection from ischemic trauma (summary statement)
smiles,measurement,setting,value
"O=c1[nH]cc(F)c(=O)[nH]1 [5-FU, 5-fluorouracil]","21 day survival, EAT model","[1]; Experiment 1, day 4 to day 13, OC-5186 10 mg/kg/day, combination at respective doses, control 25%",40%
same,"Average survival, EAT model","[1]; Experiment 1, day 4 to day 13, OC-5186 10 mg/kg/day, combination at respective doses, control 17.0 days",20.3 days
same,"21 day survival, EAT model","[1]; Experiment 2, 23 days, OC-5186 1 mg/kg/day, combination, control 0%",40%
same,"Average survival, EAT model","[1]; Experiment 2, 23 days, OC-5186 1 mg/kg/day, combination, control 15.3 days",20.3 days
same,Solid tumor weight (on 21 days),"solid tumor (EAT cells); Experiment 1, day 4 to day 13, OC-5186 10 mg/kg/day, combination at respective doses, control 1.2 g",0.70 g
same,"21 day surv., solid tumor model","solid tumor (EAT cells); Experiment 2, 23 days, OC-5186 1 mg/kg/day, combination, control 25%",40%
same,"Av. Surv., solid tumor model","solid tumor (EAT cells); Experiment 2, 23 days, OC-5186 1 mg/kg/day, combination, control 23.2 days",26 days
same,survival of chemotherapy / toxicity,mice; administered for 23 days,all animals die if it is administered for 23 days
same,tolerated duration of 5-FU administration without OC-5186,mice; without OC-5186,≤ 10 days
O=C1O[C@H]([C@@H](O)CO)C(O)=C1O [Ascorbic acid],survival after ischemia,brain ischemia,had no effect
same,inhibition of formation of irreversibly denatured cells (in words),sickle red blood cells,did not inhibit the formation
same,inhibition of growth of P. falciparum (in words),[2],did not inhibit the growth
CCCCC[C@H](O)/C=C/C1=C(C/C=C\CCCC(=O)OC[C@H](O)[C@H]2OC(=O)C(O)=C2O)C(=O)CC1 [OC-5181],superoxide-induced adenochrome formation (slope of the curve),[3],the slope of the curve decreased
same,inhibition of TBAR production / antioxidant activity in vitro,[4],"antioxidant activity comparable to free acid type prostaglandin oligomers, OC-2186"
same,anti-oxidant activity,[5],strong anti-oxidant activity
